Where two headings read alike, the source gives them in different places. One block for each compound: values may come before it.
Assays:
[1] = Pharmacokinetics of rutin after intravenous administration, non-compartmental analysis; assay type: in vivo, Wistar rats; settings: for AUC(0-inf) / MRT / half-life / clearance / Vd: male, Wistar, rat, iv; for Vd: read-out: Vdss
Description: (§1) The PK studies of rutin, both pure and from the extract of calyces of P. peruviana, were carried out using 50 male Wistar rats (7–11 weeks old and 250–300 g) obtained from the animal facility of the Department of Pharmacy of the Universidad Nacional de Colombia. The animals were kept under constant temperature conditions (22 ± 1 °C), with light/dark cycles of 12 h. They were provided with water and food ad libitum and fasted for 12 h before the assays. This protocol was approved by the ethics committee of the science faculty (Act 06, 2015, project 40831, 22 June 2015).
For intravenous (i.v.) administration, the extract was prepared in sodium chloride solution (0.9% NaCl), vortexed, and sonicated 3–4 times for 15 min. Rutin was first dissolved in DMSO and then diluted in 0.9% NaCl. The clear solutions were administrated via the lateral tail vein of the rats. For the oral route (p.o.) experiments, the extract and rutin were suspended in water close to the time for oral gavage dosing. […] Rutin doses below 1.45 (i.v.) or 75 (p.o.) mg/kg could not show enough quantifiable analytical signals in blood plasma. For the extract, the doses were close to the active ones, according to previous studies by our group.
Samples of the animals’ blood (approximately 250 µL) were taken by puncture in the lateral tail vein and collected in heparinized tubes at times 0, 0.05, 0.166, 0.333, 0.5, 0.75, 1, 1.5, 2, 3, 4, 6, 8, and 12 h for the i.v. experiments and at times 0, 0.083, 0.25, […], 0.75, 1, 2, 3, 4, 6, 8, 10, 12, and 24 h for the p.o. experiments.
Blood plasma aliquots (50 µL) were added to a chrysin standard solution (internal standard (IS)) at a final concentration of 1000 ng/mL. Proteins were precipitated with methanol (1:2 v:v), and clear supernatants were obtained by centrifugation at 1200× g and at 4 °C for 15 min; 6 µL of each aliquot was used for instrumental analyses. Another 50 µL of blood plasma aliquots with the IS were treated with β-glucuronidase/arylsulfatase (120 Fishman units) in order to indirectly quantify the Q3OG and quercetin-3-O-sulfate (Q3OS) present in these samples by conversion into the parent quercetin (deconjugation). The deconjugation reaction was promoted by incubating the samples with the enzymes at pH 5.5 and 37 °C for 30 min. Reactions with the Q3OG standard (10,000 ng/mL) and blank blood plasma were included in each analysis set as positive and negative controls, respectively. After the reaction, proteins were precipitated, as indicated above.
Rutin and quercetin quantification was carried out by UHPLC-UV using a Chromaster RS chromatograph (Hitachi, Tokyo, Japan) and a Kinetex® EVO C18 column (2.6 µm, 100 × 2.1 mm; Phenomenex, Torrance, CA, USA) with an oven setting at 30 °C and a UV detector at 260 nm. The mobile phase consisted of 0.1% formic acid in water (A) and in acetonitrile (B), flowing at 0.5 mL/min in a gradient from 75% A to 65% A up to 9.3 min and 5 min of re-equilibration. The method was validated according to FDA guidelines.
The PK parameters of rutin and quercetin (produced by deconjugation of Q3OG and Q3OS) were first determined by non-compartmental analysis (NCA) using the software program Pkanalix 2019R1 (Lixoft®, Paris, France), set to linear trapezoidal integral mode. The area under the curve to infinity (AUC0-INF), clearance (Cl), volume of distribution at the steady state (Vdss), volume of distribution associated with the terminal phase (Vdz), first-order rate constant of elimination (k), terminal half-life (t1/2), mean residence time (MRT), maximum observed concentration (Cmax), and time of maximum observed concentration (tmax) were determined for the analytes detected for each intervention.

[2] = Pharmacokinetics of quercetin (deconjugated Q3OG and Q3OS) after oral administration, non-compartmental analysis; assay type: in vivo, Wistar rats; settings: p.o.; only quercetin after deconjugation of Q3OG and Q3OS was measurable
Description: as §1
For intravenous (i.v.) administration, the extract was prepared in sodium chloride solution (0.9% NaCl), vortexed, and sonicated 3–4 times for 15 min. Rutin was first dissolved in DMSO and then diluted in 0.9% NaCl. The clear solutions were administrated via the lateral tail vein of the rats. […] Rutin doses below 1.45 (i.v.) or 75 (p.o.) mg/kg could not show enough quantifiable analytical signals in blood plasma. […]
Blood plasma aliquots (50 µL) were added to a chrysin standard solution (internal standard (IS)) at a final concentration of 1000 ng/mL. […] Another 50 µL of blood plasma aliquots with the IS were treated with β-glucuronidase/arylsulfatase (120 Fishman units) in order to indirectly quantify the Q3OG and quercetin-3-O-sulfate (Q3OS) present in these samples by conversion into the parent quercetin (deconjugation). […]

[3] = Population pharmacokinetic modeling of rutin, intravenous administration; assay type: in vivo, Wistar rats; settings: rutin i.v.; for k12 pop / k21 pop / k pop / V_pop: Table S1
Description: Population pharmacokinetic (PopPK) modeling for rutin and quercetin (produced by deconjugation of Q3OG and Q3OS) was performed using the software program Monolix 2019R1 (Lixoft®, Paris, France). One- and two-compartment structural models with first-order elimination were evaluated, and double first-order absorption was included for the oral dosing experiments. Analyses of the categorical covariates (pure rutin, extract, and doses) were performed, and those that were significant were added to the model (p < 0.05 for Pearson’s and Wald tests with stochastic approximation). Correlations between random effects of the parameters were also tested and added to the model, where appropriate (p < 0.05 for t-test). The final model, including the model of the residual error, was selected based on the observation of individual fit plots, Akaike’s information criteria (AIC) values, visual assessment of the observation-versus-prediction plot, the precision of the estimated parameters, and evaluation of the distribution of residuals. The model was internally validated by a visual predictive check (VPC) with 1000 simulated data.
The general model equation for the PK parameters was (2) Pi=Ppop+βcovariate n+ηi,p, where Pi is the individual parameter, Ppop is the population parameter, β is a parameter representing the variability due to the significant covariate n, and η(i,p) is the individual deviation from Ppop. According to the probability distribution of individual parameters, P in the equation could be expressed as logP or logitP (logP/((1 − P)).
Rutin (i.v.) from both sources was better fitted to a two-compartment model described by the following parameters: volume of the central compartment (V), k, and the distribution rate constants k12 and k21 (Figure 3a). The […] differential equations representing this model are expressed in Equations (3) and (4), where X1 and X2 are the amounts of the drug in the central and peripheral compartments, respectively. (3) dX1/dt=k21X2−k12+kX1 (4) dX2/dt=k12X1−k21X2
The population parameters in Table 4 correspond to those of pure rutin (for the dosage set) that was used as a reference in the analysis of covariates. A similarity was noted between the values for Vpop (0.0646 L/kg) and Vdz of pure rutin from the NCA, especially at 2.9 mg/kg (0.068 L/kg). The Clpop parameter, estimated from Vpop and kpop, was equivalent to the Cl of pure rutin from the NCA (in both cases 0.095 L/h/kg for the set of doses). […] Equations (5)–(8) describe the model of covariates, where η is the individual deviation from Ppop. (5) log(V/1−V)=log(Vpop/1−Vpop)+βVGEXT+ηV (6) logk=logkpop+βkGEXT+ηk (7) logk12=logk12pop (8) logk21=logk21pop

[4] = design: method as in doi:10.1016/j.tifs.2017.07.008, PMID 32162346, PMID 30614249; settings: low solubility and low permeability; cited from earlier work
[5] = Stability in plasma (bioanalytical method validation); assay type: in vitro ADME, rats; settings: Wistar, rat; plasma at acidic pH; 2 h at 4 °C, 30 d at −80 °C, and 3 freeze/thaw cycles
Description: Rutin and quercetin quantification was carried out by UHPLC-UV using a Chromaster RS chromatograph (Hitachi, Tokyo, Japan) and a Kinetex® EVO C18 column (2.6 µm, 100 × 2.1 mm; Phenomenex, Torrance, CA, USA) with an oven setting at 30 °C and a UV detector at 260 nm. The mobile phase consisted of 0.1% formic acid in water (A) and in acetonitrile (B), flowing at 0.5 mL/min in a gradient from 75% A to 65% A up to 9.3 min and 5 min of re-equilibration. The method was validated according to FDA guidelines. The UHPLC-UV method used for rutin and quercetin quantification in the blood plasma samples was selective and specific for these analytes and for the IS (Figure S2) and met all the criteria of the FDA guidelines. Linearity was described for the equations y = 0.00042x + 0.00910 (r^2 0.9996) and y = 0.00056 − 0.00767 (r^2 0.99980) for rutin and quercetin, respectively, at the concentration range from 100 to 10,000 ng/mL with a 1/x^2 weighting factor. Accuracy and precision were ≥85.6% (as recovery) and ≤7.2% (as variation coefficient), respectively, for both analytes, and these parameters were not affected by dilutions of over-concentrated samples up to 20 times the upper limit of quantification (recovery ≥ 86.3%).

[6] = rutin in plasma, pure rutin i.v. 1.45 mg/kg
[7] = rutin in plasma, pure rutin i.v. 2.9 mg/kg
[8] = run Pure rutin and extract model: final model
[9] = run Pure rutin and extract model: model of covariate 1
[10] = run Pure rutin: one compartment model, first order elimination
[11] = run Pure rutin: selection of model error and final model
[12] = run Pure rutin: two-compartment model, first order elimination
[13] = two-compartment popPK model, pure rutin (dosage set) as reference

Structure (SMILES): C[C@@H]1O[C@@H](OC[C@H]2O[C@@H](Oc3c(-c4ccc(O)c(O)c4)oc4cc(O)cc(O)c4c3=O)[C@H](O)[C@@H](O)[C@@H]2O)[C@H](O)[C@H](O)[C@H]1O [Rutin, quercetin-3-O-rutinoside]
AUC(0-inf) [1, 6]: 14900 ng·h/mL
MRT [1, 6]: 64.8 ± 10.6 min
half-life [1, 6]: 39.6 ± 7.8 min
clearance ([1]; rutin in plasma, pure rutin i.v. 1.45 mg/kg, read-out: Cl (converted)): 1.67 mL/min/kg
Vd [1, 6]: 0.11 ± 0.0306 L/kg
AUC(0-inf) [1, 7]: 33900 ng·h/mL
MRT [1, 7]: 48.6 ± 3.18 min
half-life [1, 7]: 32.4 ± 3.72 min
clearance ([1]; rutin in plasma, pure rutin i.v. 2.9 mg/kg, read-out: Cl (converted)): 1.5 mL/min/kg
Vd [1, 7]: 0.07 ± 0.009 L/kg
clearance ([1]; plasma, rutin i.v., pure rutin, set of doses, read-out: Cl from the NCA (converted)): 1.58 mL/min/kg
AUC/dose × 10^−3 [1, 6]: 10,243.52 ± 1743.478 h/L
Vdz [1, 6]: 0.096 ± 0.027 L/kg
k [1, 6]: 1.08 ± 0.195 h⁻¹
AUC/dose × 10^−3 [1, 7]: 11,701.24 ± 992.522 h/L
k [1, 7]: 1.29 ± 0.159 h⁻¹
Vdz ([1]; rutin in plasma, pure rutin i.v. 2.9 mg/kg, 2.9 mg/kg): 0.068 ± 0.012 L/kg
Vdz ([1]; rutin in plasma, pure rutin i.v. 2.9 mg/kg, listed as pure rutin, 2.9 mg/kg): 0.068 L/kg
plasma concentrations of rutin or free quercetin after oral administration [2]: did not allow measurable plasma concentrations of rutin or free quercetin
k12 pop [3, 8]: 2.6 h⁻¹
k21 pop [3, 8]: 13.6 h⁻¹
k pop [3, 8]: 1.47 h⁻¹
V_pop [3, 9]: 5.9 e-5
k12 pop [3, 9]: 2.62 h⁻¹
k21 pop [3, 9]: 9.67 h⁻¹
k pop [3, 9]: 1.58 h⁻¹
V_pop [3, 10]: 7.81 e−5
k pop [3, 10]: 1.22 h⁻¹
V_pop [3, 11]: 6.4e -5
k12 pop [3, 11]: 2.5 h⁻¹
k21 pop [3, 11]: 16.8 h⁻¹
k pop [3, 11]: 1.48 h⁻¹
V_pop [3, 12]: 5.89e -5
k12 pop [3, 12]: 5.24 h⁻¹
k21 pop [3, 12]: 19.4 h⁻¹
k pop [3, 12]: 1.61 h⁻¹
Clpop ([3]; estimated from Vpop and kpop, set of doses): 1.58 mL/min/kg
Vpop (volume of the central compartment) [3, 13]: 0.0646 L/kg
k12_pop [3, 13]: 2.6 h⁻¹
k21_pop [3, 13]: 13.6 h⁻¹
kpop (first-order rate constant of elimination) [3, 13]: 1.47 h⁻¹
biopharmaceutical classification system class [4]: class IV

recovery [5]: ≥ 87.8%
Structure (SMILES): O=c1c(O)c(-c2ccc(O)c(O)c2)oc2cc(O)cc(O)c12 [quercetin]
